Bounds are passed on as bounds.

This experiment concerns Endogenous Huntingtin Protein. As to the kind of experiment: Endogenous Huntingtin Protein Assay (ELISA-based Meso Scale Discovery electrochemiluminescence). The experiment is classed as cell-based. Conditions: MSD electrochemiluminescence, Table 1. In a few lines:
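Huntingtin was captured overnight at 4 °C on plates coated with 1 μg/mL MW1 (polyQ-expanded) or MAB2166 antibody and BSA-blocked. Detection used a rabbit monoclonal and then a SULFO-TAG goat anti-rabbit antibody (0.25 μg/mL, 1 h each, room temperature). Signal was read by electrochemiluminescence.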
In general terms: In an ELISA, binding on a coated surface is turned into a signal by an enzyme label.
In the case of `CC1(C)CC(Nc2ncc(-c3ccc(-n4cnc(F)c4)cc3O)nn2)CC(C)(C)N1` [Cpd 275, 5-(4-fluoro-1H-imidazol-1-yl)-2-{3-[(2,2,6,6-tetramethylpiperidin-4-yl)amino]-1,2,4-triazin-6-yl}phenol], the IC50 (as a rule, the concentration that gives 50% inhibition) is no more than 100 nM.

Compound `CC1(C)CC(Nc2ncc(-c3ccc(-n4cc(F)cn4)cc3O)nn2)CC(C)(C)N1` [Cpd 276, 5-(4-fluoro-1H-pyrazol-1-yl)-2-{3-[(2,2,6,6-tetramethylpiperidin-4-yl)amino]-1,2,4-triazin-6-yl}phenol] gave an IC50 of no more than 100 nM.

As for `Cc1ncc(-c2ccc(-c3cnc(NC4CC(C)(C)NC(C)(C)C4)nn3)c(O)c2)o1` [Cpd 277, 5-(2-methyl-1,3-oxazol-5-yl)-2-{3-[(2,2,6,6-tetramethylpiperidin-4-yl)amino]1,2,4-triazin-6-yl}phenol], the IC50 is no more than 100 nM. In the case of `CC(C)(C)NC1CN(c2ncc(-c3ccc(-c4cn[nH]c4)cc3O)nn2)CC1F` (centres unmarked) [Cpd 278, 2-{3-[3-(tert-butylamino)-4-fluoropyrrolidin-1-yl]-1,2,4-triazin-6-yl}-5-(1H-pyrazol-4-yl)phenol] it was no more than 100 nM; in that of `CC1(C)CC(Nc2ncc(-c3ccc(-c4ncccn4)cc3O)nn2)CC(C)(C)N1` [Cpd 279, 5-(pyrimidin-2-yl)-2-{3-[(2,2,6,6-tetramethylpiperidin-4-yl)amino]-1,2,4-triazin-6-yl}phenol], no more than 100 nM. In turn, `CN(c1ncc(-c2ccc(-c3cc(F)c4[nH]cnc4c3)cc2O)nn1)C1CC(C)(C)NC(C)(C)C1` [Cpd 280, 5-(7-fluoro-1H-benzimidazol-5-yl)-2-{3-[methyl(2,2,6,6-tetramethylpiperidin-4-yl)amino]-1,2,4-triazin-6-yl}phenol] came in with an IC50 of no more than 100 nM.

Turning to `CN(c1ncc(-c2ccc(-c3ncc4c(cnn4C)n3)cc2O)nn1)C1CC(C)(C)NC(C)(C)C1` [Cpd 281, 5-(1-methyl-1H-pyrazolo[4,3-d]pyrimidin-5-yl)-2-{3-[methyl(2,2,6,6-tetramethylpiperidin-4-yl)amino]-1,2,4-triazin-6-yl}phenol], the IC50 was no more than 100 nM. As for `CC1(C)CN(c2ncc(-c3ccc(-c4cn[nH]c4)cc3O)nn2)CC(C)(C)N1` [Cpd 282, 5-(1H-pyrazol-4-yl)-2-[3-(3,3,5,5-tetramethylpiperazin-1-yl)-1,2,4-triazin-6-yl]phenol], the IC50 is greater than 500 nM. In turn, `CC(C)NC1CCN(c2ncc(-c3ccc(-c4cn5ccnc5cn4)cc3O)nn2)C1` (centres unmarked) [Cpd 283, 5-(imidazo[1,2-a]pyrazin-6-yl)-2-(3-{3-[(propan-2-yl)amino]pyrrolidin-1-yl}-1,2,4-triazin-6-yl)phenol] returned a half-inhibitory concentration (IC50) of 1000 to 3000 nM. In the case of `Cn1ncc2cc(-c3ccc(-c4cnc(N[C@H]5CC(C)(C)NC(C)(C)[C@H]5F)nn4)c(O)c3)cnc21` [Cpd 284] it was no more than 100 nM; in that of `CN(c1ncc(-c2ccc(-c3ccc4c(c3)ncn4C)cc2O)nn1)C1CC(C)(C)NC(C)(C)C1` [Cpd 285, 5-(1-methyl-1H-benzimidazol-5-yl)-2-{3-[methyl(2,2,6,6-tetramethylpiperidin-4-yl)amino]-1,2,4-triazin-6-yl}phenol], no more than 100 nM; in that of `CO[C@H]1[C@@H](Nc2ncc(-c3ccc(-c4cn[nH]c4)cc3O)nn2)CC(C)(C)NC1(C)C` [Cpd 286, 2-(3-{[(3S,4S)-3-methoxy-2,2,6,6-tetramethylpiperidin-4-yl]amino}-1,2,4-triazin-6-yl)-5-(1H-pyrazol-4-yl)phenol], 100 to 500 nM.

As for `Cn1ncc(-c2ccc(-c3cnc(N[C@H]4CC(C)(C)NC(C)(C)[C@H]4F)nn3)c(O)c2)n1` [Cpd 287, 2-(3-{[(3S,4S)-3-fluoro-2,2,6,6-tetramethylpiperidin-4-yl]amino}-1,2,4-triazin-6-yl)-5-(2-methyl-2H-1,2,3-triazol-4-yl)phenol], the concentration for half-maximal inhibition (IC50) was no more than 100 nM. The figure for `CC1(C)C[C@H](Nc2ncc(-c3ccc(-c4ncco4)cc3O)nn2)[C@H](F)C(C)(C)N1` [Cpd 288, 2-(3-{[(3S,4S)-3-fluoro-2,2,6,6-tetramethylpiperidin-4-yl]amino}-1,2,4-triazin-6-yl)-5-(1,3-oxazol-2-yl)phenol] is no more than 100 nM.
